Results reported in the NIST ThermoML archive (doi:10.1016/j.fluid.2012.08.024).
Numbers after ± are expanded uncertainties.

How the values were obtained:
[1] = mn = molality of the nth substance listed, in mol/kg; conditions: 298.15 K, 101 kPa, Liquid; for mass density: Vibrating tube method; for molar conductivity: Alternating current cell with electrodes
[2] = refractive index (Na D-line) (dimensionless); mn = molality of the nth substance listed, in mol/kg; conditions: 298.15 K, 101 kPa, Liquid, Standard Abbe refractometry

O=C[C@H](O)[C@@H](O)[C@H](O)[C@H](O)CO [D-glucose] + O
Conditions	mass density, [1] [kg/m3]	refractive index, [2]
m1 = 0.0104	997.75 ± 0.29	1.3328 ± 0.0004
m1 = 0.03	999.09 ± 0.29	1.3334 ± 0.0004
m1 = 0.05	1000.45 ± 0.29	1.3339 ± 0.0004
m1 = 0.0705	1001.83 ± 0.29	1.3343 ± 0.0004
m1 = 0.0899	1003.13 ± 0.29	1.3349 ± 0.0004
m1 = 0.1102	1004.48 ± 0.3	1.3352 ± 0.0004
m1 = 0.1301	–	1.3357 ± 0.0004
m1 = 0.1496	–	1.3361 ± 0.0004
m1 = 0.1691	–	1.3366 ± 0.0004

CCCCCCn1cc[n+](C)c1.[Br-] [3-hexyl-1-methyl-1H-imidazolium bromide] + O
[1]
Conditions	mass density [kg/m3]	molar conductivity [S·m2/mol]
m1 = 0.1017	1001.8 ± 0.29	–
m1 = 0.2038	1006.13 ± 0.3	–
m1 = 0.3005	1010.26 ± 0.3	–
m1 = 0.3716	–	0.01169 ± 4.2e-05
m1 = 0.4033	1014.58 ± 0.31	–
m1 = 0.9047	–	0.01149 ± 4.2e-05
m1 = 1.268	–	0.01134 ± 4.2e-05
m1 = 1.963	–	0.01117 ± 4.2e-05
m1 = 2.512	–	0.01099 ± 4.2e-05
m1 = 3.102	–	0.01085 ± 4.2e-05
m1 = 3.708	–	0.01072 ± 4.2e-05
m1 = 4.273	–	0.01055 ± 4.2e-05
m1 = 4.944	–	0.01044 ± 4.2e-05
m1 = 5.55	–	0.01034 ± 4.2e-05
